Reference: patent US20060275329A1 (priority 2002, published 2006)

Key:
recombinant TcOYE = type: biochemical, Trypanosoma cruzi; conditions: pH 7
TcOYE [1] = assay: Electron spin resonance spectrum of the reaction product of TcOYE (radical generation); type: biochemical, Trypanosoma cruzi; conditions: JEOL X-band spectrometer
Protocol: Generation of radicals as a result of one-electron reduction is determined as follows. A hundred microliter of 5 mM tris-HCl buffer (pH 7.0) containing TcOYE and a substrate candidate is displaced with argon gas for 5 minutes to make an anaerobic environment. Then, 10 mM NADPH or NADH is added to the reaction mixture and allowed to react at 25° C. or 37° C. for 3 minutes under anaerobic condition. Part of the reaction mixture is analyzed with an electron spin resonance spectrometer (JEOL X-band spectrometer) to determine the generation of radicals. The measurement conditions and analytical method are described in the paper below. It is believed that the radicals produced react with oxygen to generate superoxide anion radicals (Moreno S. N. J. et al., J. Biol. Chem. 259: 6298-6305, 1984), which kill Trypanosoma cruzi.
The semiquinone radicals reacted with oxygen and produced superoxide anion radicals, which kill the protozoa (see FIG. 8).

TcOYE [2] = assay: Inhibition of the PGH2-F2α reductase activity of TcOYE; type: biochemical, Trypanosoma cruzi; conditions: FIG. 9
Protocol: An example of the reaction is as follows. For reaction under aerobic condition, 1 μl of 500 μM [1-14C]PGH2 solution (2.04 Gbq/mmol; acetone, DMSO or dimethylether diethylene glycol solution) is added to 100 μl of 100 mM phosphate buffer (pH 7.0) containing a NADPH production system (100 μM NADP, 100 μM glucose-6-phosphate, 1 unit of glucose-6-phosphate dehydrogenase), TcOYE and an inhibitor, and is allowed to react at 37° C. for two minutes. For reaction under anaerobic condition, after bubbling the reaction mixture with argon gas for five minutes, 100 μM NADPH or NADH and 1 μl PGH2 solution are added, and the mixture is allowed to react in argon gas at 37° C. for two minutes.
250 μl of a stop solution (diethyl ether:methanol:2M citric acid (30:4:1 mixed solution)) at −20° C. and an excess amount of anhydrous sodium sulfate are added to stop the reaction, and the remaining substrate ([1-14C]PGH2) and the enzymatic reaction product ([1-14C]PGF2α) are extracted in ether at the same time. Part (about 50 μl) of the ether layer is applied onto a silica gel thin layer (Merck & Co.) in a low-temperature room, and thin-layer chromatography (eluent:diethyl ether:methanol:acetic acid (90:2:1 mixed solution)) is performed in a refrigerated room at −20° C. After development, autoradiography of the thin layer plate is performed using the image analyzer FL2000 (Fuji Photo Film), and the substrate to product ratio is calculated to determine enzymatic activity.
The enzymatic reaction described above is conducted in the presence or absence of an inhibitor and a decrease in the reaction rate due to the inhibitor is examined to determine whether or not the reduction is inhibited. Because it is very likely that Trypanosoma cruzi uses prostaglandin to sustain parasitism in host cells, an inhibitor of TcOYE may be used to inhibit Trypanosoma cruzi parasitism in host cells.
Naphtoquinone compounds and nitro heterocyclic compounds that are reduced by TcOYE inhibit the PGH2-F2α reducing activity of TcOYE in a dose-dependent manner.

[3] = system: crude extract of Trypanosoma cruzi (PG synthesizing system); assay: Prostaglandin production from arachidonic acid by crude extract of Trypanosoma cruzi; type: biochemical
Protocol: The vegetative form (epimastigote) of Trypanosoma cruzi YNIH strain in the insect body (obtained from the National Institute of Infectious Diseases (1-23-1, Toyama, Shinjuku-ku, Tokyo)) was incubated by the conventional method (Nozaki T. et al., J. Biol. Chem. 276: 6516-6523, 2001) using synthetic culture medium. The cultured protozoa was destroyed by hyposmotic treatment and allowed to react with arachidonic acid, and the PGs produced were extracted with an organic solvent and separated/purified by HPLC.

[4] = system: O=[N+]([O-])c1cc[n+]([O-])c2ccccc12; assay: purified protein, by the assay type; conditions: other: cofactor NADPH (500 μM), argon-bubbled 0.1 M phosphate buffer pH 7.0, decrease in absorption at 340 nm
C[n+]1c2ccccc2nc2ccccc21 = assay: purified protein, by the assay type; conditions: other: cofactor NADPH (500 μM), argon-bubbled 0.1 M phosphate buffer pH 7.0, decrease in absorption at 340 nm
[5] = system: [H][C@]12C[C@]([H])(OO1)[C@H](C/C=C\CCCC(=O)O)[C@H]2/C=C/[C@@H](O)CCCCC; assay: purified protein, by the assay type; conditions: other: cofactor NADPH (500 μM), argon-bubbled 0.1 M phosphate buffer pH 7.0, decrease in absorption at 340 nm
CC1=CC(=O)c2ccccc2C1=O = assay: purified protein, by the assay type; conditions: other: cofactor NADPH (500 μM), argon-bubbled 0.1 M phosphate buffer pH 7.0, decrease in absorption at 340 nm
[6] = system: CC1CS(=O)(=O)CCN1/N=C/c1ccc([N+](=O)[O-])o1; assay: purified protein, by the assay type; conditions: other: cofactor NADPH (500 μM), argon-bubbled 0.1 M phosphate buffer pH 7.0, decrease in absorption at 340 nm
[7] = system: CC1(C)CCC2=C(O1)c1ccccc1C(=O)C2=O; assay: purified protein, by the assay type; conditions: other: cofactor NADH (500 μM), argon-bubbled 0.1 M phosphate buffer pH 7.0, decrease in absorption at 340 nm

Compound | Reduction of the compound by TcOYE (substrate specificity) (recombinant TcOYE) | Type of reduction and radical production (ESR) (TcOYE [1]) | also measured
2β,6α-dimethyl-8α-(2-methyl-1-oxo-butoxy)-mevinic acid lactone [mevinolin] | reduces | underwent two-electron reduction and did not produce radicals | 
O=[N+]([O-])c1cc[n+]([O-])c2ccccc12 [4-nitroquinoline-N-oxide] | reduces | underwent two-electron reduction and did not produce radicals | Inhibition of the PGH2-F2α reducing activity of TcOYE (TcOYE [2]): weak
CCCCC/C=C\C=C\C(=O)CCCCCCCC(=O)O [9-oxo-10E,12Z-octadecadienoic acid] | reduces |  | 
CC/C=C\C[C@@H]1C(=O)C=C[C@@H]1CCCCCCCC(=O)O [12-oxo-phytodienoic acid, 4-oxo-5β-(2Z-pentenyl)-2-cyclopentene-1β-octanoic acid] | reduces |  | 
CC(=O)Oc1ccccc1C(=O)O [Aspirin] |  |  | Production of PGs (PGD2, PGE2, PGF2) by crude extract ([3]; 3 μM Aspirin): unaffected
O=C(Cn1ccnc1[N+](=O)[O-])NCc1ccccc1 [benznidazole] | did not reduce |  | 
Clc1ccc(COC(Cn2ccnc2)c2ccc(Cl)cc2Cl)cc1 (stereo not shown) [econazole] | reduces |  | 
OO [hydrogen peroxide] | reduced |  | 
COc1ccc2c(c1)c(CC(=O)O)c(C)n2C(=O)c1ccc(Cl)cc1 [indomethacin] |  |  | Production of PGs (PGD2, PGE2, PGF2) by crude extract ([3]; 42 μM indomethacin): unaffected
CC1=CC(=O)c2ccccc2C1=O [menadion] | reduces | underwent one-electron reduction and produced semiquinone radicals | Inhibition of the PGH2-F2α reducing activity of TcOYE (TcOYE [2]): weak
CC1CS(=O)(=O)CCN1/N=C/c1ccc([N+](=O)[O-])o1 (stereo not shown) [nifurtimox] | reduces | underwent two-electron reduction and did not produce radicals | Inhibition of the PGH2-F2α reducing activity of TcOYE (TcOYE [2]): inhibits the activity most strongly
C[n+]1c2ccccc2nc2ccccc21 [phenazine methosulfate, 5-methyl-phenaziummethylsulfate] | reduces |  | 
CC1(C)CCC2=C(O1)c1ccccc1C(=O)C2=O [β-lapachone] | reduces | underwent one-electron reduction and produced semiquinone radicals | Inhibition of the PGH2-F2α reducing activity of TcOYE (TcOYE [2]): weak
recombinant TcOYE (Trypanosoma cruzi old yellow enzyme, PGH2-F2α reductase, flavoprotein, SEQ ID NO: 2, 379 amino acids; expressed in E. coli BL21 from pGEX-4T-1 as fusion with glutathione transferase, recovered by thrombin treatment) (Trypanosoma cruzi) |  |  | Km [4]: 9.5 µM; Km (C[n+]1c2ccccc2nc2ccccc21): 10.4 µM; Km [5]: 5.0 µM; Km (CC1=CC(=O)c2ccccc2C1=O): 0.82 µM; Km [6]: 19.0 µM; Km [7]: 0.17 µM
